# Counter-ions that a name gives are not always drawn.
# Target: hResistin (Homo sapiens (Human), UniProt Q9HD89)
# Assay: Evaluation of the ability to inhibit TNF-α secretion by hResistin (THP-1 cells, ELISA)
# Assay type: cell-based
# Conditions: 5 μM, inhibition of TNF-α secretion by hResistin in THP-1 cells
# Protocol: Experimental Example: Evaluation of the Ability to Inhibit TNF-α Secretion by hResistin
# Using THP-1 (human monocyte) cell line and ELISA system, the abilities to inhibit TNF-α secretion by hResistin (IC50) were evaluated for the compounds prepared in the above examples. The compounds target hResistin, and the abilities of the compounds to inhibit TNF-α secretion by human recombinant Resistin in human monocyte (THP-1) were evaluated. The abilities to inhibit TNF-α secretion were assessed by ELISA quantifying the amount of antibody with the enzyme as a marker using an antigen-antibody reaction.
# Specifically, the cultured cells were spun down at 1,500 rpm for 2 minutes, the supernatant was removed and then the cells were re-suspended in 10 mL of complete RPMI-1640 medium. After counting the number of cells using Luna™ Automated Cell Counter, cells were plated into 96-well assay plates at 50 μL per well. The cells cultured for 24 hours were treated with the test substances in accordance with the concentration for 1 hour, and then the supernatant was collected and subjected to ELISA assay. In the ELISA assay, the absorbance at 450 nm (OD450 nm) was measured using Flexstation 3. The ability of each test substance to inhibit TNF-α secretion (IC50) and its inhibition at a concentration of 5 uM are shown in Table 1 below.
# Chain of hResistin (Q9HD89 19-108): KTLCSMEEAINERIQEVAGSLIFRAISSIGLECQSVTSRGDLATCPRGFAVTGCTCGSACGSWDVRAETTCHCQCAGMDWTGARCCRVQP
row,SMILES,inhibition at 5 µM
1,"C[C@H]1CN(C(=O)C(C)(C)N)CCN1c1nnc(-c2ccc(Cl)cc2)c2ccccc12 [Example 74, (S)-2-amino-1-(4-(4-(4-chlorophenyl)phthalazin-1-yl)-3-methylpiperazin-1-yl)-2-methylpropan-1-one hydrochloride]",38.7%
2,"O=C(C1CCCCN1)N1CCN(c2nnc(-c3ccc(Cl)cc3)c3ccccc23)CC1 (centres unmarked) [Example 78, (4-(4-(4-chlorophenyl)phthalazin-1-yl)piperazin-1-yl)(piperidin-2-yl)methanone hydrochloride]",81.3%
3,"C[C@@H]1CN(c2nnc(-c3ccc(Cl)cc3)c3ccccc23)CCN1C(=O)C(C)(C)N [Example 70, (R)-2-amino-1-(4-(4-(4-chlorophenyl)phthalazin-1-yl)-2-methylpiperazin-1-yl)-2-methylpropan-1-one hydrochloride]",61.4%
4,"Clc1ccc(-c2nnc(N3CCCN(Cc4ccccc4)CC3)c3ccccc23)cc1 [Example 67, 1-(4-benzyl-1,4-diazepan-1-yl)-4-(4-chlorophenyl)phthalazine]",38.9%
5,"CC(C)[C@H](N)C(=O)N1CCN(c2nnc(-c3ccc(Cl)cc3)c3ccccc23)C[C@H]1C [Example 71, (S)-2-amino-1-((R)-4-(4-(4-chlorophenyl)phthalazin-1-yl)-2-methylpiperazin-1-yl)-3-methylbutan-1-one hydrochloride]",42.2%
6,"CCOC(=O)CN1CCN(c2nnc(-c3ccc(Cl)cc3)c3ccccc23)CC1 [Example 65, ethyl 2-(4-(4-(4-chlorophenyl)phthalazin-1-yl)piperazin-1-yl)acetate]",2.4%
7,"O=C1CN[C@H](C(=O)N2CCN(c3nnc(-c4ccc(Cl)cc4)c4ccccc34)CC2)CN1 [Example 81, (S)-5-(4-(4-(4-chlorophenyl)phthalazin-1-yl)piperazine-1-carbonyl)piperazin-2-one hydrochloride]",48.1%
8,"Clc1ccc(-c2nnc(N3CCC(N4CCOCC4)CC3)c3ccccc23)cc1 [Example 8, 4-(1-(4-(4-chlorophenyl)phthalazin-1-yl)piperidin-4-yl)morpholine]",54.4%
9,"O=C([C@@H]1CCCN1)N1CCC(c2nnc(-c3ccc(Cl)cc3)c3ccccc23)CC1 [Example 62, (S)-(4-(4-(4-chlorophenyl)phthalazin-1-yl)piperidin-1-yl)(pyrrolidin-2-yl)methanone hydrochloride]",24.8%
10,"CC(C)(C)C(N)C(=O)N1CCN(c2nnc(-c3ccc(Cl)cc3)c3ccccc23)CC1 (centres unmarked) [Example 77, 2-amino-1-(4-(4-(4-chlorophenyl)phthalazin-1-yl)piperazin-1-yl)-3,3-dimethylbutan-1-one hydrochloride]",46.7%
11,"CC(C)[C@H](N)C(=O)N1CCN(c2nnc(-c3ccc(Cl)cc3)c3ccccc23)C[C@@H]1C [Example 73, (S)-2-amino-1-((S)-4-(4-(4-chlorophenyl)phthalazin-1-yl)-2-methylpiperazin-1-yl)-3-methylbutan-1-one hydrochloride]",53.6%
12,"NC1(C(=O)N2CCN(c3nnc(-c4ccc(Cl)cc4)c4ccccc34)CC2)CCCC1 [Example 58, (1-aminocyclopentyl)(4-(4-(4-chlorophenyl)phthalazin-1-yl)piperazin-1-yl)methanone hydrochloride]",77.3%
13,"Clc1ccc(-c2nnc(N3CCN(CC4CC4)CC3)c3ccccc23)cc1 [Example 50, 1-(4-chlorophenyl)-4-(4-(cyclopropylmethyl)piperazin-1-yl)phthalazine]",54%
14,"O=C(C1CC1)N1CCC(c2nnc(-c3ccc(Cl)cc3)c3ccccc23)CC1 [Example 56, (4-(4-(4-chlorophenyl)phthalazin-1-yl)piperidin-1-yl)(cyclopropyl)methanone]",26.2%
15,"O=S(=O)(C1CCCC1)N1CCN(c2nnc(-c3ccc(Cl)cc3)c3ccccc23)CC1 [Example 34, 1-(4-chlorophenyl)-4-(4-(cyclopentylsulfonyl)piperazin-1-yl)phthalazine]",64.9%
16,"CN[C@@H]1CCCN(c2nnc(-c3ccc(Cl)cc3)c3ccccc23)C1 [Example 57, (R)-1-(4-(4-chlorophenyl)phthalazin-1-yl)-N-methylpiperidin-3-amine hydrochloride]",92.8%
17,"CNCCCN(C)c1nnc(-c2ccc(Cl)cc2)c2ccccc12 [Example 55, N1-(4-(4-chlorophenyl)phthalazin-1-yl)-N1,N3-dimethylpropane-1,3-diamine hydrochloride]",13.1%
18,"CC[C@H](C)[C@H](N)C(=O)N1CCN(c2nnc(-c3ccc(Cl)cc3)c3ccccc23)CC1 [Example 60, (2S,3S)-2-amino-1-(4-(4-(4-chlorophenyl)phthalazin-1-yl)piperazin-1-yl)-3-methylpentan-1-one hydrochloride]",91.2%
19,"CC(C)(N)C(=O)N1CCC(c2nnc(-c3ccc(Cl)cc3)c3ccccc23)CC1 [Example 64, 2-amino-1-(4-(4-(4-chlorophenyl)phthalazin-1-yl)piperidin-1-yl)-2-methylpropan-1-one hydrochloride]",23.9%
20,"O=S(=O)(C1CC1)N1CCN(c2nnc(-c3ccc(Cl)cc3)c3ccccc23)CC1 [Example 37, 1-(4-chlorophenyl)-4-(4-(cyclopropylsulfonyl)piperazin-1-yl)phthalazine]",52.9%
21,"NCCN1CCN(c2nnc(-c3ccc(Cl)cc3)c3ccccc23)CC1 [Example 38, 2-(4-(4-(4-chlorophenyl)phthalazin-1-yl)piperazin-1-yl)ethanamine hydrochloride]",69.5%
22,"CC(C)[C@H](N)C(=O)N1CCC(c2nnc(-c3ccc(Cl)cc3)c3ccccc23)CC1 [Example 61, (S)-2-amino-1-(4-(4-(4-chlorophenyl)phthalazin-1-yl)piperidin-1-yl)-3-methylbutan-1-one hydrochloride]",21.2%

# Further lines, results first:
row,inhibition at 5 µM,SMILES
1,32%,"CC(C)(N)C(=O)N1CCN(c2nnc(-c3ccc(OC(F)(F)F)cc3)c3ccccc23)CC1 [Example 103, 2-amino-2-methyl-1-(4-(4-(4-(trifluoromethoxy)phenyl)phthalazin-1-yl)piperazin-1-yl)propan-1-one hydrochloride]"
2,50%,"CC(C)(C(=O)O)N1CCN(c2nnc(-c3ccc(Cl)cc3)c3ccccc23)CC1 [Example 82, 2-(4-(4-(4-chlorophenyl)phthalazin-1-yl)piperazin-1-yl)-2-methylpropanoic acid]"
3,45.3%,"NC(=O)CC(N)C(=O)N1CCN(c2nnc(-c3ccc(Cl)cc3)c3ccccc23)CC1 (centres unmarked) [Example 85, 3-amino-4-(4-(4-(4-chlorophenyl)phthalazin-1-yl)piperazin-1-yl)-4-oxobutanamide hydrochloride]"
4,3.9%,"CNC1CCN(c2nnc(Cc3ccc(Cl)cc3)c3ccccc23)C1 (centres unmarked) [Example 98, 1-(4-(4-chlorobenzyl)phthalazin-1-yl)-N-methylpyrrolidin-3-amine hydrochloride]"
5,12.6%,"NC(=O)CCC(N)C(=O)N1CCN(c2nnc(-c3ccc(Cl)cc3)c3ccccc23)CC1 (centres unmarked) [Example 84, 4-amino-5-(4-(4-(4-chlorophenyl)phthalazin-1-yl)piperazin-1-yl)-5-oxopentanamide hydrochloride]"
6,58.9%,"Clc1ccc(-c2nnc(OC3CCCNC3)c3ccccc23)cc1 (centres unmarked) [Example 96, 1-(4-chlorophenyl)-4-(piperidin-3-yloxy)phthalazine hydrochloride]"
7,0.6%,"CC(C)(N)C(=O)N1CCN(c2nnc(-c3ccc(CCC(=O)O)cc3)c3ccccc23)CC1 [Example 104, 3-(4-(4-(4-(2-amino-2-methylpropanoyl)piperazin-1-yl)phthalazin-1-yl)phenyl)propanoic acid hydrochloride]"
8,37%,"CC(C)(N)C(=O)N1CCN(c2nnc(-c3ccc(C(F)(F)F)cc3)c3ccccc23)CC1 [Example 102, 2-amino-2-methyl-1-(4-(4-(4-(trifluoromethyl)phenyl)phthalazin-1-yl)piperazin-1-yl)propan-1-one hydrochloride]"
9,26.9%,"CNC1CCN(c2nnc(Nc3ccc(Cl)cc3)c3ccccc23)C1 (centres unmarked) [Example 97, N-(4-chlorophenyl)-4-(3-(methylamino)pyrrolidin-1-yl)phthalazin-1-amine]"

# Same assay, conditions: THP-1 human monocyte cell line, human recombinant Resistin
row,SMILES,IC50
1,"NC1(C(=O)N2CCN(c3nnc(-c4ccc(Cl)cc4)c4ccccc34)CC2)CCCC1 [Example 58, (1-aminocyclopentyl)(4-(4-(4-chlorophenyl)phthalazin-1-yl)piperazin-1-yl)methanone hydrochloride]",2.9 µM
2,"O=S(=O)(C1CCCC1)N1CCN(c2nnc(-c3ccc(Cl)cc3)c3ccccc23)CC1 [Example 34, 1-(4-chlorophenyl)-4-(4-(cyclopentylsulfonyl)piperazin-1-yl)phthalazine]",3 µM
3,"CN[C@@H]1CCCN(c2nnc(-c3ccc(Cl)cc3)c3ccccc23)C1 [Example 57, (R)-1-(4-(4-chlorophenyl)phthalazin-1-yl)-N-methylpiperidin-3-amine hydrochloride]",1 µM
4,"O=C(C1CC1)N1CCN(c2nnc(-c3ccc(Cl)cc3)c3ccccc23)CC1 [Example 10, (4-(4-(4-chlorophenyl)phthalazin-1-yl)piperazin-1-yl)(cyclopropyl)methanone]",1.2 µM
5,"CC[C@H](C)[C@H](N)C(=O)N1CCN(c2nnc(-c3ccc(Cl)cc3)c3ccccc23)CC1 [Example 60, (2S,3S)-2-amino-1-(4-(4-(4-chlorophenyl)phthalazin-1-yl)piperazin-1-yl)-3-methylpentan-1-one hydrochloride]",1.9 µM
6,"NCCN1CCN(c2nnc(-c3ccc(Cl)cc3)c3ccccc23)CC1 [Example 38, 2-(4-(4-(4-chlorophenyl)phthalazin-1-yl)piperazin-1-yl)ethanamine hydrochloride]",7.9 µM
7,"OCCN1CCN(c2nnc(-c3ccccc3)c3ccccc23)CC1 [Example 1, 2-(4-(4-phenylphthalazin-1-yl)piperazin-1-yl)ethanol]",1 µM

# Now from value to compound:
row,IC50,SMILES
1,5.4 µM,"NC(=O)CC(N)C(=O)N1CCN(c2nnc(-c3ccc(Cl)cc3)c3ccccc23)CC1 (centres unmarked) [Example 85, 3-amino-4-(4-(4-(4-chlorophenyl)phthalazin-1-yl)piperazin-1-yl)-4-oxobutanamide hydrochloride]"
2,1.7 µM,"Clc1ccc(-c2nnc(N3CCC4CCNC4C3)c3ccccc23)cc1 (centres unmarked) [Example 87, 1-(4-chlorophenyl)-4-(tetrahydro-1H-pyrrolo[2,3-c]pyridin-6(2H,7H,7aH)-yl)phthalazine hydrochloride]"
3,18 µM,"NC(CCC(=O)O)C(=O)N1CCN(c2nnc(-c3ccc(Cl)cc3)c3ccccc23)CC1 (centres unmarked) [Example 86, 4-amino-5-(4-(4-(4-chlorophenyl)phthalazin-1-yl)piperazin-1-yl)-5-oxopentanoic acid hydrochloride]"

# Reference: US10947241B2, “Phenyl phthalazine derivative, method for the preparation thereof, and pharmaceutical composition comprising the same” (Seoul National University Hospital, priority 2016, dated 2021)
